Data set [1] relates to A375 cells. As to the kind of experiment: Annexin V-PE/7-AAD apoptosis assay (Muse). It counts as cell-based. The note with it: 48 h, early and late apoptotic. Here is the method:
In this study, A375 cells were initially seeded into 24-well plates at a density of 1×10^4 cells per well. After 24 hours, the cell culture medium was carefully removed, and a new medium containing 16b and 29 at varying final concentrations (1, 5, and 10 µM) was added, followed by an additional 48-hour incubation. Cells in a medium containing 0.2% DMSO served as the control group. After the treatment period, cells were washed with phosphate-buffered saline (PBS), and both the cell medium and PBS wash were retained. The cells were then detached using trypsin and centrifuged. The resulting cell pellet was suspended in a fresh medium after discarding the supernatant. An equivalent volume of Muse Annexin V & Dead Cell Reagent (Luminex Corporation, Austin, TX, USA) was added and thoroughly mixed through repeated pipetting. The staining procedure was conducted for 20 minutes at room temperature in the absence of light. The Muse Cell Analyzer (Luminex Corporation, Austin, TX, USA) was utilized for analysis. This assay detects phosphatidylserine (PS) on apoptotic cell surfaces using annexin V-PE (phycoerythrin) binding. A 7-AAD (7-aminoactinomycin D) marker was used to assess cell membrane integrity. The dual staining approach enabled the identification of four distinct cell groups: viable (Annexin V-PE− and 7-AAD−), early apoptotic (Annexin V-PE+ and 7-AAD−), late apoptotic/dead (Annexin V-PE+ and 7-AAD+), and primarily nuclear debris (Annexin V-PE− and 7-AAD+). The findings were based on at least three separate experimental runs.

The target of another data set is T1, tubulin (Sus scrofa, UniProt P02550+P02554).
T1 construct: purchased Cytoskeleton, Denver, CO, USA
As to the kind of experiment: Cell free tubulin polymerization assay (fluorescence-based). Format: biochemical. On the procedure:
The tubulin polymerization process was evaluated using a tubulin (>99% pure) and fluorescence-based tubulin polymerization kit (Cytoskeleton, Denver, CO, USA). The effects of compounds 16b and 29 (at final concentrations of 1, 10, 50, 100 µM) on tubulin polymerization were evaluated in cell-free conditions. Paclitaxel (PTX) and vinblastine (VBL) (3 µM) were used as references, and DMSO (0.2%) was used as the vehicle control. This assay tracks the process of tubulin polymerization through an increase in fluorescence resulting from the addition of a fluorescence reporter to microtubules as polymerization occurs. After incubating the tested compounds at 37°C for 1 minute, the icy tubulin reaction mixture (2 mg/mL tubulin, 1.0 mM GTP, 15% glycerol in buffer containing 80 mM PIPES, 2.0 mM MgCl2, 0.5 mM EGTA, pH 6.9, and 10 µM fluorescent reporter) was added to the samples, which were then mixed and monitored using a spectrophotometric microplate reader (Infinite 200 Pro, Tecan) at 1-minute intervals for 90 minutes at 37°C (excitation: 360 nm, emission: 450 nm). The software installed on the plate reader was used to compute the maximum slope (Vmax) of the growth phase, measured in RFU/min, as outlined in the manufacturer's instructions. Each polymerization curve's Vmax was then standardized against the control curve's Vmax. The IC50 values were determined using an online tool (AAT Bioquest, Inc., Quest Graph™ IC50 Calculator ((v.1). Retrieved from https://www.aatbio.com/tools/IC50-calculator-v1, accessed on: 2024, May 6).

In another data set the test system is melanoma A375 cells. Put plainly: WST-1 antiproliferative assay. Format: cell-based. The settings on record: Homo sapiens, A-375. The source says: (§1) The A375 malignant melanoma cell line (ECACC 88113005, Salisbury, UK) was procured from the European Collection of Authenticated Cell Cultures (ECACC). The primary culture of human dermal fibroblasts (HDF) was derived from skin according to the protocol approved by the Ethical Committee of Pomeranian Medical University in Szczecin (KB-0012/02/18). The detailed protocol of fibroblast isolation, authentication, and cell culture conditions was previously described. Both cell lines were cultivated in a humidified incubator under conditions of 5% CO2 and a temperature of 37°C, using Dulbecco’s modified Eagle’s medium (DMEM) with 4500 mg/L glucose (Sigma-Aldrich Merck Group, St. Louis, MO, USA) enriched with 10% heat-inactivated fetal bovine serum (FBS, EURx, Gdańsk, Poland), 2 mM L-glutamine (Sigma-Aldrich Merck Group, St. Louis, MO, USA), and penicillin-streptomycin solution (Sigma-Aldrich Merck Group, St. Louis, MO, USA). Regular assessments for the presence of mycoplasma were conducted using the MycoAlert® Mycoplasma Detection Kit (Lonza, Rockland, ME, USA).
(§2) The evaluation of the antiproliferative activity of the compounds was performed using the Cell Proliferation Reagent WST-1 assay (Roche, Germany). This assay relies on the reduction of tetrazolium salt to formazan, with the final amount of formazan proportional to the number of viable cells. In our study, A375 cells (2×10^3) and HDF (3×10^3) were initially seeded into 96-well plates and cultured in a humidified atmosphere of 5% CO2 at 37°C. 24 hours later, the culture medium was replaced with a medium containing the tested compounds for a 48-hour incubation period at specified final concentrations. […] For control purposes, cells without the tested compounds, which contained only the vehicle (DMSO), were used. Additionally, a blank sample consisting of tested compounds in a medium (without cells) was included. After the 48-hour incubation period, the WST-1 reagent was introduced and allowed to incubate with the cells for 30 minutes. The absorbance was subsequently measured at 450 nm with background correction at 620 nm using a microplate reader (Infinite 200 Pro, Tecan, Männedorf, Switzerland). Cell viability was calculated according to the following formula: [(Atest–Ablank)/ (Acontrol − Ablank)] × 100%. These measurements were conducted in triplicate for at least three independent experiments.
In the screening step, 10 µM solutions of all 33 compounds were tested on A375 cells. […] Selected compounds (2c, 18e, 16b, 29) were tested at concentrations of 0.1, 1, 10, 50, and 100 µM. The IC50 values were determined using an online calculator (AAT Bioquest, Inc., Quest Graph™ IC50 Calculator (v.1). Retrieved from https://www.aatbio.com/tools/IC50-calculator-v1, accessed on: 2022, December 12).

In data set [2] the test system is A375 cells. Put plainly: Live-cell imaging (time-lapse microscopy). The note with it: 5 µM, 48 h. Format: cell-based. Here is the method: For live-cell imaging, A375 cells were seeded into 96-well plates at a density of 2×10^3 cells per well and allowed to grow for 24 h before imaging. Next, the cell culture medium was carefully removed, and new medium containing 16b (at 2 µM and 10 µM) and 29 (at 5 µM and 10 µM) was added and the cell culture plate was placed in the imaging chamber of Agilent BioTek Lionheart FX automated microscope (Agilent Technologies, Inc., Santa Clara, CA, USA) equipped with a Plan Fluorite 20x/0.75 objective (Olympus, Nishi-Shinjuki, Tokyo, Japan), and a FLIR Blackfly BFLY-U3-23S6M camera (Teledyne FLIR, Wilsonville, OR, USA). The temperature in the imaging chamber was set to 37°C and CO2 level to 5%. The bright-field images were acquired every 5 minutes for 48 hours.

Data set [3] can be described thus: WST-1 assay on non-tumor cells (selectivity). It counts as cell-based, human. The note with it: human, primary human dermal fibroblasts (HDF); at 500 µM.
From the text: as §1, §2
(§3) For that purpose, non-tumor HDF cells were used and the concentrations of tested compounds were increased to 200 µM (0.4% DMSO) and 500 µM (1% DMSO). Appropriate controls were prepared for higher concentrations of DMSO.
For orientation: Formazan colour is commonly taken as a measure of viable cells.

Data set [4] deals with human dermal fibroblasts (HDF). As to the kind of experiment: WST-1 assay on non-tumor cells (selectivity). Format: cell-based.
From the text: as §1, §2, §3

The values that follow come from paper PMC13223435, “Synthesis and Antiproliferative Activity against Melanoma Cells of New Heterocyclic Hybrids Based on Pyridine and Pyrimidine Scaffolds” (Current Medicinal Chemistry, 2025).

As a reminder, the IC50 is the concentration needed to halve the response being measured. By viability is commonly meant a read-out of living cells in per cent, often relative to untreated cells. Low values mean more harm to the cells, high ones less harm to the cells.

T1 sequence (P02554 whole entry): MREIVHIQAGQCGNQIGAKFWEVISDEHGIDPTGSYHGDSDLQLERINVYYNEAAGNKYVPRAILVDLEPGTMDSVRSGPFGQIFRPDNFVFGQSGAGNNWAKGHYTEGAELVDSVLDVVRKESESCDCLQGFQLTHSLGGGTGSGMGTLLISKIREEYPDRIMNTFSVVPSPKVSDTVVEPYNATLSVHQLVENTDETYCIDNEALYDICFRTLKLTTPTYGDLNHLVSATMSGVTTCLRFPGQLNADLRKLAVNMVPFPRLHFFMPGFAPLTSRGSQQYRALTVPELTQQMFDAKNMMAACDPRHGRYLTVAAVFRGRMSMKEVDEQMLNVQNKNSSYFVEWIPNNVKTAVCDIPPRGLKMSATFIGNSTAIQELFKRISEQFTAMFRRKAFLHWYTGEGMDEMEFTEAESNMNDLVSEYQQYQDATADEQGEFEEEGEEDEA
T1 sequence (P02550 whole entry): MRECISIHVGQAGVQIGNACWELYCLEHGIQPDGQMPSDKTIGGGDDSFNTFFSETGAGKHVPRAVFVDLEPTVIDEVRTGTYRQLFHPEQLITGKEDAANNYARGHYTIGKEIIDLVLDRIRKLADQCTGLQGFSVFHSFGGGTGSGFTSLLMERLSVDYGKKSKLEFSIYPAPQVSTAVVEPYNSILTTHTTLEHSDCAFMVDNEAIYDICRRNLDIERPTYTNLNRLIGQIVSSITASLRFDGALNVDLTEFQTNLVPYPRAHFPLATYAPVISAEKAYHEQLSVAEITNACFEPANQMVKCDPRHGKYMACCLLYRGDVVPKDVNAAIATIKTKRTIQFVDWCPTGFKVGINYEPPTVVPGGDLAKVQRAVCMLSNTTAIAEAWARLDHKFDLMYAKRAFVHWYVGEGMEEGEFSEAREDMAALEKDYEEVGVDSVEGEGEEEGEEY

For the compound `CN1C=C(c2ccccc2)[C@@H](c2ccccc2)[C@H](C(=O)c2ccccc2)C1=S` [Compound 29], the “percentage of annexin-positive cells” value with A375 cells [1] (5 µM) is 8.28 ± 1.80%; in the data set on A375 cells [1] (10 µM) it was 21.38 ± 1.55%. Further, the IC50 at tubulin (Vmax normalised to control, read-out: tubulin polymerization inhibition IC50) is over 100 µM; with melanoma A375 cells (48 hours of treatment) it was 4.85 ± 1.67 µM; in data set [4] (Fibroblast, 48 hours of treatment, normal human dermal fibroblasts), over 500 µM. The “effect on tubulin polymerization” value at tubulin (all tested concentrations (1-100 µM)) is recorded as “not interacting with tubulin”. In the data set on melanoma A375 cells (10 µM, 48 h of treatment, A375, read-out: Cell proliferation (% control)), the activity at 10 µM worked out at 24.7 ± 4.73%. Also, the “time-lapse observation of A375 cells” value with A375 cells [2] is reported as “more normal cells in the field of view than in the case of the same concentration of 16b”. This compound returned a viability at 48 h, 500 µM in data set [3] of 85.9 ± 7.47%. The “Selectivity index (SI)” value in data set [4] (IC50 normal cells (HDF)/IC50 cancer cell (A375)) is listed as over 100.
